Target: T1, 5-HT3 -receptor (Rattus norvegicus, UniProt P35563)
T1 construct: Transient reduction in heart rate and blood pressure induced by intravenous administration of serotonin; from tissue
T1 sequence (P35563 24-483): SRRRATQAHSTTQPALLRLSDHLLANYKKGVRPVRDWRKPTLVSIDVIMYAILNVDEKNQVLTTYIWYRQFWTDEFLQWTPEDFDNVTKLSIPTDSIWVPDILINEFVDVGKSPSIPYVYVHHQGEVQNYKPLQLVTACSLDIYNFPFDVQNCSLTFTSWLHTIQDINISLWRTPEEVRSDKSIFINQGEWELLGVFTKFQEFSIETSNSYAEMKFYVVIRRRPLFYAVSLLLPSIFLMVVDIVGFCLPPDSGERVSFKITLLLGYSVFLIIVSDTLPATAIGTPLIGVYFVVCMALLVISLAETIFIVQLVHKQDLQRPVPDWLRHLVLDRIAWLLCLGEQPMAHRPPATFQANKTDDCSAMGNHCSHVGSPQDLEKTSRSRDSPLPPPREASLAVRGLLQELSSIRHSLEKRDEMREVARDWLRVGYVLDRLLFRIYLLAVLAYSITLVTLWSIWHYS
Experiment: Antagonism against 5-HT3-receptor: serotonin-induced Bezold-Jarish (BJ) reflex in anesthetized rats
Type: in vivo
Conditions: iv, 10 min, i.v., urethane-anesthetized Wistar male rats, given 10 minutes before serotonin, read-out: BJ Reflex Inhibitory Activity ED50
Procedure: Nine-week-old Wistar male rats were anesthetized by intraperitoneal administration of 1 g/kg of urethane, and blood pressure and heart rate were measured under artificial respiration. Transient reduction in heart rate and blood pressure induced by intravenous administration of serotonin or 2-methylserotonin which is a selective agonist of 5-HT3 was taken as an index of the reaction via 5-HT3 receptor [Bezold-Jarish reflex; Paintal, A. S., Pysiolo. Rev., Vol. 53, p. 159 (1973)].
Inhibitory activity of the compound of the present invention on serotonin-induced Bezold-Jarish (BJ) reflex in rats is shown in Table 1 below.

ED50 [µg/kg]	Structure (SMILES)
0.29	O=C(C1CCc2nc[nH]c2C1)N1CCc2ccccc21.O=C(O)/C=C/C(=O)O (centres unmarked) [Example 2, 5-[(2,3-Dihydroindol-1-yl)carbonyl]-4,5,6,7-tetrahydrobenzimidazole fumarate]
0.8	O=C(C1CCc2nc[nH]c2C1)n1c(=O)[nH]c2ccccc21 (centres unmarked) [Example 9, 1-[(4,5,6,7-tetrahydrobenzimidazol-5-yl)carbonyl]-2,3-dihydrobenzimidazol-2-one]
